Where no end group is shown, it is not given here.
Columns and labels:
inflammation site = details: S. aureus inflammation rat
Method: Staphylococcus aureus 10^8 cells were suspended in 1 ml of physiological saline, and 100 μl of the suspension was intramuscularly administered to SD rats weighing about 220 g at the right calf. […] Thirty and 120 minutes after the peptide was injected, the animal was imaged with a gamma camera. Regions of interest were selected from the obtained image to determine a ratio T/B of the radioactivity in inflammation site (T) to the radioactivity in normal site (B).

Tumor cells HEp2 = test: Imaging of tumor in HEp2 tumor-bearing nude mouse (gamma camera, organ radioactivity); assay type: in vivo, BALB/C nude mouse; details: twenty minutes after injection
Method: Tumor cells HEp2 (5×10^6 cells, Human Epidermoid Carcinoma; ATCC No. CCL 23) were suspended in 1.0 ml of medium (Minimum essential medium (Eagle's) with Earle's BSS, 90% fetal bovine serum, 10%), and 100 μl of the suspension was subcutaneously injected to BALB/C nude mouse (6 weeks age) at the body side. […] Five and 20 minutes after the injection, the animal was imaged with a gamma camera.
Immediately after the imaging, the animal was sacrificed and examined for the distribution of the radioactivity in each organ using NaI single channel analyzer to determine a ratio of the radioactivity in tumor site to the radioactivity in muscle site (T/B ratio).

Substance	T/B ratio (radioactivity in inflammation site to radioactivity in normal site) (inflammation site; i.v. tail vein, regions of interest of image, n=6)	Imaging of inflammation site (gamma camera) (inflammation site; imaged 30 and 120 minutes after injection)	T/B ratio (radioactivity in tumor site to radioactivity in muscle site) (Tumor cells HEp2; i.v. tail vein, n=3)	Imaging of tumor site (gamma camera) (Tumor cells HEp2)
Tc-99m-KYCGGKTKPREQQYNSTYRVV-NH2	3.26±0.18	clearly imaged		
Tc-99m-KYCAREPPTRTNAYWGQG (also: Tc-99m label) [Tc-99m-labeled peptide containing KYC at the N-terminus, for tumor imaging]			4.50±0.71	clearly imaged
